Where two headings read alike, the source gives them in different places. Each block holds one molecule with its values, some of them ahead of it.
Experiments:
[1] = Cassette pharmacokinetic test in mice (plasma, brain, CSF); format: in vivo, male CD-1 mice
Protocol: The pharmacokinetic behaviors of the compounds of the present invention in mice were studied and the pharmacokinetic properties thereof were evaluated.

[2] = Solid stability test, influence factors (high temperature, high humidity); format: physicochemical
Protocol: The sample placed under a high temperature condition was sealed and left to stand in a stability test chamber at 60° C. After 10 days, the sample was taken and tested for solid purity and crystal form. The sample placed under a high humidity condition was left to stand at room temperature and 92.5% RH humidity (the mouth of the sample bottle was wrapped with a layer of sealing film and 15˜20 small holes were evenly punched in the sealing film), and the samples were taken and tested for solid purity and crystal form after 5 days/10 days, respectively.

[3] = Accelerated stability test of solid; format: physicochemical; conditions: for Purity: HPLC area purity
From the text: Samples were respectively taken at 1 month, 2 months and 3 months to test the solid chemical purity (HPLC area purity) and crystal form.

[4] = Pharmacokinetic test in mice; format: in vivo; conditions: mouse, plasma; PO (10 mL/kg [sic]) vs IV 3 mg/kg, male CD-1 mice; read-out: Bioavailability F %
Protocol: The drug concentrations of the compounds in plasma at different time points were determined by LC/MS/MS method after single intravenous (IV) and intragastric (PO) administration of the compounds to 7-9 week old male CD-1 mice as the test animals. The pharmacokinetic behaviors of the compounds of the present invention in mice were studied and pharmacokinetic properties thereof were evaluated.
The compounds were prepared into clear solutions using 5% DMSO+10% solutol+85% water as a solvent for administration in IV (intravenous injection) and PO (gavage) groups. The administration dosage of each compound was 3 mg/kg for the IV group and […] for the PO group.

[5] = male, CD-1, mouse, in vivo, iv, 1 mg/kg
[6] = male, CD-1, mouse, in vivo, po, 3 mg/kg
[7] = PO @ 3 mpk, cassette, brain, 2 h
[8] = mouse, plasma, 1 mg/kg, IV @ 1 mpk, cassette, male CD-1 mice, read-out: Apparent Distribution Volume Vd
[9] = mouse, plasma, 1 mg/kg, IV @ 1 mpk, cassette, male CD-1 mice, read-out: Area under Curve AUC0-inf
[10] = mouse, plasma, 1 mg/kg, IV @ 1 mpk, cassette, male CD-1 mice, read-out: Half-life T1/2 (converted)
[11] = mouse, plasma, 1 mg/kg, IV @ 1 mpk, cassette, male CD-1 mice, read-out: Initial Concentration C0
[12] = mouse, plasma, 3 mg/kg, PO @ 3 mpk vs IV @ 1 mpk, cassette, male CD-1 mice, read-out: Bioavailability F %
[13] = mouse, plasma, 3 mg/kg, PO @ 3 mpk, cassette, male CD-1 mice, read-out: Area under Curve AUC0-inf
[14] = mouse, plasma, 3 mg/kg, PO @ 3 mpk, cassette, male CD-1 mice, read-out: Peak Concentration Cmax
[15] = mouse, plasma, 3 mg/kg, PO @ 3 mpk, cassette, male CD-1 mice, read-out: Time to Peak Tmax
[16] = Room temperature/92.5% RH, 5 days
[17] = Room temperature/92.5% RH, 10 days

Structure (SMILES): O=C1NC2(CC2)COc2ncc(F)cc2[C@H]2CCON2c2ccn3ncc1c3n2
Test Results Purity ([2]; 60° C, sealed, 10 days): 100.0%
Test Results Crystal Form ([2]; 60° C, sealed, 10 days, XRPD): Crystal Form C
Test Results Relative Purity* ([2]; 60° C, sealed, 10 days, purity of stability sample/purity of starting sample x100%): 100.0%
Test Results Crystal Form [2, 16]: Crystal Form C
Test Results Purity [2, 16]: 100.0%
Test Results Relative Purity* [2, 16]: 100.0%
Test Results Crystal Form [2, 17]: Crystal Form C
Test Results Purity [2, 17]: 100.0%
Test Results Relative Purity* [2, 17]: 100.0%
Relative Purity* ([3]; 40° C./75% RH, 1 month): 100.0
Purity ([3]; 40° C./75% RH, 1 month): 100.0
Relative Purity* ([3]; 40° C./75% RH, 2 months): 100.0
Purity ([3]; 40° C./75% RH, 2 months): 100.0
Relative Purity* ([3]; 40° C./75% RH, 3 months): 100.0
Purity ([3]; 40° C./75% RH, 3 months): 100.0
Relative Purity* ([3]; 60° C./75% RH, 1 month): 99.9
Purity ([3]; 60° C./75% RH, 1 month): 99.9
Relative Purity* ([3]; 60° C./75% RH, 2 months): 100.0
Purity ([3]; 60° C./75% RH, 2 months): 100.0
Relative Purity* ([3]; 60° C./75% RH, 3 months): 100.0
Purity ([3]; 60° C./75% RH, 3 months): 100.0

Structure (SMILES): O=C(Nc1cnn2ccc(N3CCC[C@@H]3c3cc(F)ccc3F)nc12)N1CC[C@H](O)C1 [LOXO-101, Larotrectinib]
bioavailability [4]: 28%
Drug Concentration in Cerebrospinal Fluid at 0.5 h ([1]; PO @ 3 mpk, cassette, CSF): 15 nmol/kg
Drug Concentration in Cerebrospinal Fluid at 2 h ([1]; PO @ 3 mpk, cassette, CSF, 2 h): 3 nmol/kg
Drug Concentration in Brain at 0.5 h ([1]; PO @ 3 mpk, cassette, brain): 40 nmol/kg
Drug Concentration in Brain at 2 h [1, 7]: 20 nmol/kg
Vd [1, 8]: 1.57 L/kg
AUC(0-inf) [1, 9]: 1.72 µM·h
half-life [1, 10]: 72.6 min
C0 [1, 11]: 2380 nM
bioavailability [1, 12]: 51%
AUC(0-inf) [1, 13]: 2.72 µM·h
Cmax [1, 14]: 1350 nM
Tmax [1, 15]: 30 min

Further lines, results first:

AUC(0-inf) [1, 5]: 3.77 µM·h
C0 [1, 5]: 2810 nM
Vd [1, 5]: 1.24 L/kg
half-life [1, 5]: 116 min
AUC(0-inf) [1, 6]: 3.26 µM·h
Cmax [1, 6]: 586 nM
Tmax [1, 6]: 45 min
bioavailability [1, 6]: 23%
Drug Concentration in Brain at 2 h ([1]; male, CD-1, mouse, in vivo, po, 3 mg/kg, 2 h): 30 nmol/kg
Structure (SMILES): CN1CCN(c2ccc(C(=O)Nc3n[nH]c4ccc(Cc5cc(F)cc(F)c5)cc34)c(NC3CCOCC3)c2)CC1 [RXDX-101, Entrectinib]

Drug Concentration in Cerebrospinal Fluid at 0.5 h ([1]; PO @ 3 mpk, cassette, CSF): 8 nmol/kg
Drug Concentration in Brain at 0.5 h ([1]; PO @ 3 mpk, cassette, brain): 50 nmol/kg
Drug Concentration in Brain at 2 h [1, 7]: 41 nmol/kg
Vd [1, 8]: 2.63 L/kg
AUC(0-inf) [1, 9]: 2.86 µM·h
half-life [1, 10]: 221 min
C0 [1, 11]: 2250 nM
bioavailability [1, 12]: 64%
AUC(0-inf) [1, 13]: 5.49 µM·h
Cmax [1, 14]: 1540 nM
Tmax [1, 15]: 45 min
Structure (SMILES): C[C@H]1CNC(=O)c2cnn3ccc(nc23)N[C@H](C)c2cc(F)ccc2O1 [TPX-0005]

bioavailability [4]: 74%
Structure (SMILES): C[C@@H]1CCc2ncc(F)cc2[C@H]2CCCN2c2ccn3ncc(c3n2)C(=O)N1 [LOXO-195, reference compound]

Reference: patent US20220289765A1, “CRYSTAL OF CARCINOGENIC FUSED KINASE INHIBITOR AND APPLICATIONS THEREOF” (Simcere Pharmaceutical Co., Ltd., priority 2019, published 2022)
